Values joined by “and” are separate entries in the source; they are usually repeats but may differ in a detail not shown here. Equal entries are not always repeated. Inconclusive results and toxic doses are left out. No stated cut-off is given here; in the data, active means T/C of 150% or more; inactive means T/C below 125%.
Tested on: L1210 leukemia ip in BDF1 mice, survival T/C
Experiment: NCI In Vivo Anticancer Drug Screen. Data for tumor model L1210 Leukemia (intraperitoneal) in B6D2F1 (BDF1) mice
Conditions: endpoint: mean survival time, higher = longer survival
In short: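 Each compound was tested against a transplantable tumor grown in mice. The endpoint was survival, with treated animals benchmarked against vehicle controls as a simple ratio.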

[1] = dose: 25.0 mg/kg/injection, schedule: Q01DX009 (ip), vehicle: Klucel (hydroxypropylcellulose) (HPC)
[2] = dose: 100.0 mg/kg/injection, schedule: Q01DX001 (ip), vehicle: Klucel (hydroxypropylcellulose) (HPC)
[3] = dose: 100.0 mg/kg/injection, schedule: Q04DX003 (ip), vehicle: Klucel (hydroxypropylcellulose) (HPC)
[4] = dose: 100.0 mg/kg/injection, schedule: Q01DX001 (ip), vehicle: carboxymethylcellulose (CMC)
[5] = dose: 200.0 mg/kg/injection, schedule: Q04DX003 (ip), vehicle: Klucel (hydroxypropylcellulose) (HPC)
[6] = dose: 400.0 mg/kg/injection, schedule: Q04DX003 (ip), vehicle: Klucel (hydroxypropylcellulose) (HPC)
[7] = dose: 100.0 mg/kg/injection, schedule: Q04DX003 (ip), vehicle: saline with Tween-80
[8] = dose: 12.5 mg/kg/injection, schedule: Q04DX003 (ip), vehicle: saline
[9] = dose: 25.0 mg/kg/injection, schedule: Q04DX003 (ip), vehicle: saline
[10] = dose: 50.0 mg/kg/injection, schedule: Q04DX003 (ip), vehicle: saline
[11] = dose: 100.0 mg/kg/injection, schedule: Q01DX001 (ip), vehicle: saline with Tween-80
[12] = dose: 200.0 mg/kg/injection, schedule: Q01DX001 (ip), vehicle: saline with Tween-80
[13] = dose: 400.0 mg/kg/injection, schedule: Q01DX001 (ip), vehicle: saline with Tween-80
[14] = dose: 100.0 mg/kg/injection, schedule: Q01DX001 (ip), vehicle: saline
[15] = dose: 100.0 mg/kg/injection, schedule: Q04DX003 (ip), vehicle: saline
[16] = dose: 200.0 mg/kg/injection, schedule: Q01DX001 (ip), vehicle: saline
[17] = dose: 400.0 mg/kg/injection, schedule: Q01DX001 (ip), vehicle: saline

Measured: T/C

Cc1cn(Cc2ccc(Cl)cc2Cl)c(C)n1
inactive: dose: 25.0 mg/kg/injection, schedule: Q01DX001 (ip), vehicle: Klucel (hydroxypropylcellulose) (HPC) 100 % of control | [1] 97 % of control and 109 % of control | dose: 50.0 mg/kg/injection, schedule: Q01DX001 (ip), vehicle: Klucel (hydroxypropylcellulose) (HPC) 100 % of control | dose: 50.0 mg/kg/injection, schedule: Q04DX002 (ip), vehicle: Klucel (hydroxypropylcellulose) (HPC) 102 % of control and 108 % of control | [2] 94 % of control

Sc1ccccc1Cl
inactive: dose: 12.5 mg/kg/injection, schedule: Q01DX009 (ip), vehicle: Klucel (hydroxypropylcellulose) (HPC) 97 % of control | [1] 95 % of control | dose: 25.0 mg/kg/injection, schedule: Q04DX003 (ip), vehicle: Klucel (hydroxypropylcellulose) (HPC) 103 % of control | dose: 50.0 mg/kg/injection, schedule: Q01DX009 (ip), vehicle: Klucel (hydroxypropylcellulose) (HPC) 97 % of control | dose: 50.0 mg/kg/injection, schedule: Q04DX003 (ip), vehicle: Klucel (hydroxypropylcellulose) (HPC) 103 % of control | [3] 102 % of control

CC(=O)Nc1cc2c3ccccc3ccc2c2ccccc12
inactive: [4] 87 % of control

c1ccc2c(c1)nnn2-c1ccncc1
inactive: dose: 50.0 mg/kg/injection, schedule: Q01DX009 (ip), vehicle: saline with Tween-80 92 % of control | dose: 100.0 mg/kg/injection, schedule: Q01DX009 (ip), vehicle: saline with Tween-80 98 % of control | dose: 200.0 mg/kg/injection, schedule: Q01DX009 (ip), vehicle: saline with Tween-80 90 % of control

CC(C#N)(Nc1ccccc1)c1ccc(Br)cc1 (centres undefined)
inactive: [3] 95 % of control | [5] 95 % of control | [6] 95 % of control

CCOC(=O)NC(C)(C)CN(C(=O)OCC)C(C)C
inactive: [7] 97 % of control | dose: 200.0 mg/kg/injection, schedule: Q04DX003 (ip), vehicle: saline with Tween-80 101 % of control | dose: 400.0 mg/kg/injection, schedule: Q04DX003 (ip), vehicle: saline with Tween-80 117 % of control

O=C(N/N=C\c1ccc(N(CCCl)CCCl)cc1)c1ccccn1
inactive: dose: 50.0 mg/kg/injection, schedule: Q01DX001 (ip), vehicle: carboxymethylcellulose (CMC) 108 % of control | [4] 108 % of control | dose: 200.0 mg/kg/injection, schedule: Q01DX001 (ip), vehicle: carboxymethylcellulose (CMC) 103 % of control | dose: 400.0 mg/kg/injection, schedule: Q01DX001 (ip), vehicle: carboxymethylcellulose (CMC) 100 % of control

CC(=O)CC(=O)NCC(CCN(C)C)(c1cccc2ccccc12)C(C)C (centres undefined)
inactive: [8] 105 % of control | [9] 97 % of control | [10] 99 % of control

CSC1SCC2C(=O)N(C)C(C(C)C)C(=O)OCC(NC(=O)c3cnc4ccccc4n3)C(=O)NC(C)C(=O)N(C)C1C(=O)N(C)C(C(C)C)C(=O)OCC(NC(=O)c1cnc3ccccc3n1)C(=O)NC(C)C(=O)N2C (centres undefined)
inactive: dose: 0.4 micrograms/kg/injection, schedule: Q01DX009 (ip), vehicle: saline with Tween-80 97 % of control | dose: 0.9 micrograms/kg/injection, schedule: Q01DX009 (ip), vehicle: saline with Tween-80 102 % of control | dose: 1.9 micrograms/kg/injection, schedule: Q01DX009 (ip), vehicle: saline with Tween-80 97 % of control | dose: 3.8 micrograms/kg/injection, schedule: Q01DX009 (ip), vehicle: saline with Tween-80 102 % of control | dose: 7.5 micrograms/kg/injection, schedule: Q01DX009 (ip), vehicle: saline with Tween-80 115 % of control | dose: 15.0 micrograms/kg/injection, schedule: Q01DX009 (ip), vehicle: saline with Tween-80 117 % of control

CCOC(=O)COc1c(C(C)CC)cc([N+](=O)[O-])cc1[N+](=O)[O-] (centres undefined)
inactive: dose: 25.0 mg/kg/injection, schedule: Q01DX009 (ip), vehicle: gum acacia 93 % of control | dose: 25.0 mg/kg/injection, schedule: Q04DX002 (ip), vehicle: gum acacia 104 % of control | dose: 50.0 mg/kg/injection, schedule: Q01DX009 (ip), vehicle: gum acacia 93 % of control | dose: 50.0 mg/kg/injection, schedule: Q04DX002 (ip), vehicle: gum acacia 100 % of control | dose: 100.0 mg/kg/injection, schedule: Q01DX009 (ip), vehicle: gum acacia 90 % of control | dose: 100.0 mg/kg/injection, schedule: Q04DX002 (ip), vehicle: gum acacia 100 % of control and 92 % of control

Cc1ccccc1[As](c1ccccc1C)c1ccccc1C
inactive: [7] 87 % of control

CCCCCCCCCCCCCCCC(=O)ONC(N)=O
inactive: [11] 100 % of control | [12] 96 % of control | [13] 91 % of control

CCCC1(c2ccccc2)CC(=O)NC1=O (centres undefined)
inactive: [14] 100 % of control | dose: 100.0 mg/kg/injection, schedule: Q01DX009 (ip), vehicle: saline 106 % of control and 107 % of control | dose: 100.0 mg/kg/injection, schedule: Q04DX002 (ip), vehicle: saline 100 % of control and 108 % of control | [15] 103 % of control | [16] 97 % of control | dose: 200.0 mg/kg/injection, schedule: Q01DX009 (ip), vehicle: saline 117 % of control and 89 % of control | dose: 200.0 mg/kg/injection, schedule: Q04DX002 (ip), vehicle: saline 105 % of control and 112 % of control | dose: 200.0 mg/kg/injection, schedule: Q04DX003 (ip), vehicle: saline 97 % of control | [17] 95 % of control | dose: 400.0 mg/kg/injection, schedule: Q01DX009 (ip), vehicle: saline 98 % of control and 86 % of control | dose: 400.0 mg/kg/injection, schedule: Q04DX002 (ip), vehicle: saline 105 % of control and 108 % of control | dose: 400.0 mg/kg/injection, schedule: Q04DX003 (ip), vehicle: saline 97 % of control

COc1ccc(C=Nc2ccnc3cc(OC)c(OC)cc23)cc1OC
inactive: [11] 93 % of control | [12] 104 % of control | [13] 102 % of control

CCCC(C(=O)OCCN(CC)CC)(c1ccccc1)c1ccccc1
inactive: dose: 6.25 mg/kg/injection, schedule: Q01DX009 (ip), vehicle: saline 106 % of control | dose: 12.5 mg/kg/injection, schedule: Q01DX009 (ip), vehicle: saline 92 % of control | [8] 102 % of control | dose: 25.0 mg/kg/injection, schedule: Q01DX009 (ip), vehicle: saline 93 % of control | [9] 116 % of control | dose: 50.0 mg/kg/injection, schedule: Q01DX009 (ip), vehicle: saline 93 % of control | [10] 100 % of control | [15] 102 % of control

CCCCN(C)N=Nc1ccc(Cl)cc1C(N)=O
inactive: [2] 102 % of control | dose: 100.0 mg/kg/injection, schedule: Q01DX009 (ip), vehicle: Klucel (hydroxypropylcellulose) (HPC) 110 % of control | [3] 109 % of control | dose: 200.0 mg/kg/injection, schedule: Q01DX001 (ip), vehicle: Klucel (hydroxypropylcellulose) (HPC) 107 % of control | dose: 200.0 mg/kg/injection, schedule: Q01DX009 (ip), vehicle: Klucel (hydroxypropylcellulose) (HPC) 105 % of control | [5] 96 % of control | dose: 400.0 mg/kg/injection, schedule: Q01DX001 (ip), vehicle: Klucel (hydroxypropylcellulose) (HPC) 98 % of control | dose: 400.0 mg/kg/injection, schedule: Q01DX009 (ip), vehicle: Klucel (hydroxypropylcellulose) (HPC) 105 % of control | [6] 93 % of control

Cn1nnnc1CCN(N)CCN(N)CCc1nnnn1C
inactive: [14] 103 % of control | [16] 92 % of control | [17] 95 % of control

— PubChem BioAssay AID248 (DTP/NCI, 2004)
